Measured values: US9499529B2 (California State University Fresno, priority 2013, dated 2016)

Experiments:
Type in all cases: cell-based, human
[1] = system: HeLa cervical cancer cells; test: HeLa cell viability after treatment with analog (cell count, cell viability analyzer); details: three days, relative to DMSO vehicle
Method: Cell numbers were counted with a cell viability analyzer (Beckman-Coulter). The ratio of drug treated viable cell numbers to control vehicle (DMSO) treated viable cell numbers was defined as percentage viability. […] Compound nos.
The HeLa cells used in the experiments summarized by Table 5 were cultured in RPMI-1640 medium supplemented with 10% FBS, 4 mM glutamine, 1 mM sodium pyruvate, 100 IU/mL penicillin, 100 ug/mL streptomycin and 0.25 ug/mL amphotericin. The HeLa cells were plated in 24-well plates at a density of 20,000 cells in each well in 10% FBS RPMI-1640. […] Cell numbers were counted with a cell viability analyzer (Beckman-Coulter). […]

[2] = system: PC-3 prostate cancer cells; test: In vitro cytotoxicity against PC-3 prostate cancer cells; details: PC-3 cells; for IC50: five days
Method: (§1) The half maximal inhibitory concentration (IC50) is a measure of the effectiveness of a substance in inhibiting a specific biological or biochemical function. It is commonly used as a measure of antagonist drug potency.
Cell cultures were maintained in 5% carbon dioxide at a temperature of 37° C. […] Cell numbers were counted with a cell viability analyzer (Beckman-Coulter). […] A preliminary dose response curve was prepared from the collected data by means well known to those of ordinary skill in the art.
(§2) The six different concentrations fell within a selected linear concentration range determined by reference to the preliminary dose response curve and efforts to estimate the concentration at which 50% of the cell growth would be inhibited. The selected six different concentrations were used to further fill out the dose response curve to pinpoint a more exact IC50 value.

[3] = system: DU-145 prostate cancer cells; test: In vitro cytotoxicity against DU-145 prostate cancer cells; details: DU-145 cells; for IC50: five days
Method: as §1
Cell numbers were counted with a cell viability analyzer (Beckman-Coulter).
(§3) A preliminary dose response curve was prepared from the collected data by means well known to those of ordinary skill in the art.
as §2

[4] = system: HeLa cervical cancer cells; test: In vitro cytotoxicity against HeLa cervical cancer cells; details: for IC50: three days
Method: as §1
Cell numbers were counted with a cell viability analyzer (Beckman-Coulter). The ratio of drug treated viable cell numbers to vehicle treated viable cell numbers was defined as percentage viability.
as §3, §2

Compound	HeLa Cell viability after treatment with analog (% viability) ([1]; 1 μM) [%]	HeLa Cell viability after treatment with analog (% viability) ([1]; 10 μM) [%]	IC50 (curcumin)/IC50 (analog) [2]	IC50 [2] [nM]	IC50 [3] [µM]	IC50 (curcumin)/IC50 (analog) [3]	IC50 [4] [nM]	IC50 (curcumin)/IC50 (analog) [4]
CC(C)n1ccnc1C=C1CN(C)CC(=Cc2nccn2C(C)C)C1=O [Compound 1]	126.94	118.5	18	110	0.14	–	–	–
CCC(C)n1ccnc1C=C1CN(C)CC(=Cc2nccn2C(C)CC)C1=O (stereo not shown) [Compound 2]	111.1	95.9	–	6630	0.01	–	–	–
CN1CC(=Cc2cnn(C)c2)C(=O)C(=Cc2cnn(C)c2)C1 [Compound 3]	100.9	97.8	0.03	76000	1870	0.0002	–	–
CN1CC(=Cc2ccnn2C)C(=O)C(=Cc2ccnn2C)C1 [Compound 4]	107.1	67.4	1.9	1020	1.64	0.18	–	–
CN1CC(=Cc2nccs2)C(=O)C(=Cc2nccs2)C1 [Compound 5]	51.7	21.6	4.7	420	0.046	–	–	–
Cc1nc(C=C2CN(C)CC(=Cc3coc(C)n3)C2=O)co1 [Compound 7]	59.5	59.5	6.4	310	0.076	–	–	–
Cc1cc(C=C2CN(C)CC(=Cc3cc(C)no3)C2=O)on1 [Compound 9]	75.3	27.8	–	130	0.69	0.4	–	–
CC(C)n1ccnc1C=C1CCCC(=Cc2nccn2C(C)C)C1=O [Compound 10]	114.9	85.1	–	160	0.1	–	–	–
CCC(C)n1ccnc1C=C1CCCC(=Cc2nccn2C(C)CC)C1=O (stereo not shown) [Compound 11]	100	100	2	830	0.25	–	–	–
CC(C)Cn1ccnc1C=C1CCCC(=Cc2nccn2CC(C)C)C1=O [Compound 12]	100	94.5	4.2	470	0.36	0.8	–	–
Cn1cc(C=C2CCCC(=Cc3cnn(C)c3)C2=O)cn1 [Compound 13]	97	100	0.015	130000	90	0.003	–	–
Cn1nccc1C=C1CCCC(=Cc2ccnn2C)C1=O [Compound 14]	88	71.4	7.6	260	0.73	0.41	–	–
O=C1C(=Cc2nccs2)CCCC1=Cc1nccs1 [Compound 15]	78	9.7	18	110	0.12	–	–	–
O=C1C(=Cc2cscn2)CCCC1=Cc1cscn1 [Compound 16]	79	15.8	16.5	120	0.075	–	–	–
Cc1nc(C=C2CCCC(=Cc3coc(C)n3)C2=O)co1 [Compound 17]	100	59.5	1	1970	1.65	0.18	–	–
Cc1cc(C=C2CCCC(=Cc3cc(C)no3)C2=O)on1 [Compound 19]	95	15.9	–	54	0.34	0.9	–	–

Compound	HeLa Cell viability after treatment with analog (% viability) ([1]; 1 μM) [%]	HeLa Cell viability after treatment with analog (% viability) ([1]; 10 μM) [%]	IC50 (curcumin)/IC50 (analog) [2]	IC50 [2] [nM]	IC50 [3] [µM]	IC50 (curcumin)/IC50 (analog) [3]	IC50 [4] [nM]	IC50 (curcumin)/IC50 (analog) [4]
Cn1nccc1/C=C/C(=O)/C=C/c1ccnn1C [Compound 23]	59	82.6	–	1900	0.16	–	–	–
O=C(/C=C/c1nccs1)/C=C/c1nccs1 [Compound 24]	68	19.2	–	68	0.055	–	–	–
O=C(/C=C/c1cscn1)/C=C/c1cscn1 [Compound 25]	89	13.7	–	94	0.096	–	–	–
Cc1nc(/C=C/C(=O)/C=C/c2coc(C)n2)co1 [Compound 26]	100	65.9	2.4	840	0.75	0.4	–	–
O=C(/C=C/c1cncs1)/C=C/c1cncs1 [Compound 29]	77	–	–	–	–	–	–	–
Cc1noc(C)c1/C=C/C(=O)/C=C/c1c(C)noc1C [Compound 30]	67	–	–	–	–	–	–	–
Cc1csc(/C=C/C(=O)/C=C/c2nc(C)cs2)n1 [Compound 31]	52	–	–	–	–	–	–	–
CCC(CC)n1ccnc1/C=C/C(=O)/C=C/c1nccn1C(CC)CC [Compound 32]	3.4	–	–	–	–	–	250	–
CC(C)CCn1ccnc1/C=C/C(=O)/C=C/c1nccn1CCC(C)C [Compound 33]	3.0	–	–	–	–	–	230	–
CCCC(C)n1ccnc1/C=C/C(=O)/C=C/c1nccn1C(C)CCC (stereo not shown) [Compound 34]	7.7	–	–	–	–	–	150	–
CCCCCCn1ccnc1/C=C/C(=O)/C=C/c1nccn1CCCCCC [Compound 35]	6.1	–	–	–	–	–	590	18
O=C(/C=C/c1ccncc1F)/C=C/c1ccncc1F [Compound 36]	25.6	–	–	–	–	–	–	–
O=C(/C=C/c1cocn1)/C=C/c1cocn1 [Compound 37]	72.9	–	–	–	–	–	–	–
Cn1cc(/C=C/C(=O)/C=C/c2cnn(C)c2)cn1 [Compound 38]	92.8	–	–	–	–	–	–	–
CC(C)Cn1c(/C=C/C(=O)/C=C/c2nc3ccccc3n2CC(C)C)nc2ccccc21 [Compound 41]	5.72	–	–	–	–	–	321	–
CCC(CC)n1c(/C=C/C(=O)/C=C/c2nc3ccccc3n2C(CC)CC)nc2ccccc21 [Compound 45]	–	–	–	–	–	–	696	15
